Source: ChEMBL document CHEMBL1933041, “Synthesis and biological evaluation of substituted pyrazoles as blockers of divalent metal transporter 1 (DMT1)” (Bioorg Med Chem Lett, 2012)

Legend:
[1] = Permeability from basolateral to apical side in human Caco2 cells; assay type: ADME, cell-based; conditions: Caco-2, read-out: permeability
[2] = Permeability from apical to basolateral side in human Caco2 cells; assay type: ADME, cell-based; conditions: Caco-2, read-out: permeability

| Compound | Papp B→A [1] [×10⁻⁶ cm/s] | Papp A→B [2] [×10⁻⁶ cm/s] |
| --- | --- | --- |
| CCN(CC)c1ccc(/C=C2\C(=O)N(c3ccccn3)N=C2C)cc1 | 0.6 | 0.3 |
| Cc1nn(-c2ccccn2)c(O)c1-c1ccccc1 | 16.7 | 8.2 |
| Cc1nn(-c2nc3ccccc3s2)c(O)c1-c1ccccc1 | 6.6 | 6.7 |
| Cc1nn(-c2nc3ccccc3[nH]2)c(O)c1-c1ccccc1 | 13.5 | 10.1 |
| Cc1ccc2nc(-n3nc4c(c3O)-c3ccccc3CC4)sc2c1 | 3.4 | 5.2 |
| COc1ccc2nc(-n3nc4c(c3O)-c3ccccc3CC4)sc2c1 | 16.7 | 12.7 |
| Oc1c2c(nn1-c1nc3ccc(F)cc3s1)CCc1ccccc1-2 | 1.1 | 4.3 |
| Oc1c2c(nn1-c1nc3ccccc3s1)CCc1ccccc1-2 | 24 | 20.8 |
| Oc1c2c(nn1-c1ccccn1)CCc1ccccc1-2 | 11.7 | 8.9 |
| Oc1c2c(nn1-c1nc3ccccc3[nH]1)CCc1ccccc1-2 | 6.3 | 5.1 |
| Oc1c2c(nn1-c1ccccn1)CCc1cc(-c3ccccc3)ccc1-2 | 0.9 | 0.1 |
| Oc1c2c(nn1-c1ccccn1)CCc1cc(Br)ccc1-2 | 7.6 | 3.2 |
| N#Cc1ccc2c(c1)CCc1nn(-c3ccccn3)c(O)c1-2 | 13.1 | 2.3 |
| Cc1[nH]n(-c2ccccn2)c(=O)c1C(=O)Nc1ccccc1 | 19.6 | 10.4 |
| Cc1[nH]n(-c2nccs2)c(=O)c1-c1ccccc1 | 23.8 | 23.9 |
| Cc1cccc(NC(=O)c2c(C)[nH]n(-c3ccccn3)c2=O)c1 | 15.6 | 9.9 |

| Compound | Papp B→A [1] [×10⁻⁶ cm/s] | Papp A→B [2] [×10⁻⁶ cm/s] |
| --- | --- | --- |
| COc1cccc(NC(=O)c2c(C)[nH]n(-c3ccccn3)c2=O)c1 | 15.4 | 9 |
| Cc1ccc(NC(=O)c2c(C)[nH]n(-c3ccccn3)c2=O)cc1 | 15.3 | 6.1 |
| Cc1[nH]n(-c2ccccn2)c(=O)c1C(=O)Nc1ccccc1[N+](=O)[O-] | 15.5 | 11.2 |
| Cc1[nH]n(-c2ccccn2)c(=O)c1C(=O)Nc1ccccc1C(F)(F)F | 14.2 | 7.8 |
| Cc1[nH]n(-c2ccccn2)c(=O)c1C(=O)Nc1ccc2c(c1)OCO2 | 20.8 | 9.3 |
| COc1ccc(-c2c(C)[nH]n(-c3ccccn3)c2=O)cc1 | 16.3 | 12.7 |
| Cc1[nH]n(-c2ccccn2)c(=O)c1-c1ccc(C#N)cc1 | 27.8 | 21.4 |
| Cc1[nH]n(-c2ccccn2)c(=O)c1-c1ccc([N+](=O)[O-])cc1 | 5.6 | 3.5 |
| Cc1[nH]n(-c2ccccn2)c(=O)c1-c1ccc(C(F)(F)F)cc1 | 7.9 | 3.1 |
| Cc1[nH]n(-c2ccccn2)c(=O)c1-c1cccc(C(F)(F)F)c1 | 5.8 | 7 |
| Cc1[nH]n(-c2ccccn2)c(=O)c1-c1ccc(F)cc1 | 15.9 | 11.2 |
| Cc1[nH]n(-c2nc3ccc(F)cc3s2)c(=O)c1-c1ccccc1 | 20.1 | 16.8 |
| Cc1[nH]n(-c2ccccn2)c(=O)c1C(=O)Nc1cccc(C(F)(F)F)c1 | 8.9 | 4.5 |
| Cc1[nH]n(-c2ccccn2)c(=O)c1C(=O)Nc1ccc([N+](=O)[O-])cc1 | 11.5 | 7.6 |
| COc1ccc(NC(=O)c2c(C)[nH]n(-c3ccccn3)c2=O)cc1F | 13.2 | 6.6 |
| Cc1[nH]n(-c2ccccn2)c(=O)c1C(=O)Nc1ccc(C(F)(F)F)cc1 | 3.9 | 0.6 |
